Data reported in paper PMC12015663 (Cancer Research Communications, 2025).

What was measured:
[1] = system: pERK in NF1-LOF tumor cell lines sNF96.2, MeWo, and NCI-H1838; assay: pERK modulation pattern, MSD ELISA, statements on all three NF1-LOF tumor cell lines; details: 6 hours after treatment
[2] = system: pERK in AGK::BRAF fusion melanoma PDX tumors; assay: pERK modulation in vivo (PK-PD study), AGK::BRAF fusion melanoma PDX tumors, Western blot; parameters: species or system mice
Protocol: Tumor and plasma samples were collected at 4, 8, and 24 hours after dose administration (three mice per timepoint). […] Tumor and plasma samples were collected at 4 and 24 hours after dose administration (three mice per time point). Tumor samples were snap-frozen and analyzed by Western blotting for pERK levels. Plasma samples were analyzed by the LC/MS-MS method to confirm plasma drug concentration.
Tumor samples were lysed with RIPA buffer (Thermo Fisher Scientific, cat. no. 89901) containing one complete EDTA-free tablet (Roche, cat. no. 05892791001) and one phosphatase inhibitor cocktail tablet (Roche, cat. no. 04906845001) per 10 mL of RIPA buffer. Protein concentration was determined using bicinchoninic acid assay (Pierce, cat. no. 23227). Samples were loaded at 25 to 30 μg/lane on 4% to 12% NuPAGE Bis-Tris gels (Invitrogen, cat. no. WG1403BOX) and were run in MOPS-SDS running buffer (Invitrogen, cat. no. NP0001) at constant voltage (120V) for approximately 2 hours. The gels were transferred onto a pre-activated polyvinylidene fluoride membrane (Millipore, cat. no. IPVH00010) in transfer buffer (Bio-Rad, cat. no. 161-0734). […] Blots were scanned and quantified using the Odyssey (LI-COR Biosciences) or Tanon 5200 Multi Image system (Tanon), and each sample was normalized to allow comparison.

PK parameters in mouse = assay type: in vivo; details: Mouse PK (at efficacious doses), 12 – 25 mg/kg, QD
Protocol: (§1) The mice in the control vehicle group were dosed either daily or twice daily.

NF1-LOF MeWo xenograft = assay: Antitumor efficacy in vivo, NF1-LOF MeWo xenograft; parameters: species or system mice; details: 25 mg/kg orally daily for 28 days
Protocol: Female mice with tumors harboring an AGK::BRAF fusion melanoma PDX or NF1-LOF ERMS PDX were established by inoculating NOD or NOG/SCID mice, respectively, with tumor fragments harvested from stock mice. Mice with tumors harboring an NF1-LOF mutation MeWo xenograft were established in 10 mice per treatment group by inoculating 7- to 9-week-old female BALB/c nude mice on the right flank with tumor cells (5 × 10^6) in 0.1 mL of PBS mixed with Matrigel (1:1) for tumor development. For the AGK::BRAF fusion melanoma PDX model, 7- to 8-week-old mice were inoculated subcutaneously on the right flank and randomized into eight mice per treatment group. […]
Randomization was performed based on the “Matched distribution” method (StudyDirector software, version 3.1.399.19) with the date of randomization denoted as day 0. Tumor volumes and body weight were measured twice per week after randomization. Tumor volume was measured in two dimensions (2D) using a caliper, and the volume was expressed in mm^3 using the formula V = (L × W × W)/2, in which V was tumor volume, L was tumor length (the longest tumor dimension), and W was tumor width (the longest tumor dimension perpendicular to L). Percentage change in tumor volume and body weight was calculated using StudyDirector software (version 3.1.399.19). […]

[3] = system: AGK::BRAF fusion melanoma PDX; assay: Antitumor efficacy in vivo, AGK::BRAF fusion melanoma PDX; parameters: species or system mice; details: for effect on tumor growth: NOD/SCID mice
Protocol: Female mice with tumors harboring an AGK::BRAF fusion melanoma PDX or NF1-LOF ERMS PDX were established by inoculating NOD or NOG/SCID mice, respectively, with tumor fragments harvested from stock mice. Mice with tumors harboring an NF1-LOF mutation MeWo xenograft were established in 10 mice per treatment group by inoculating 7- to 9-week-old female BALB/c nude mice on the right flank with tumor cells (5 × 10^6) in 0.1 mL of PBS mixed with Matrigel (1:1) for tumor development. For the AGK::BRAF fusion melanoma PDX model, 7- to 8-week-old mice were inoculated subcutaneously on the right flank and randomized into eight mice per treatment group. For the NF1-LOF ERMS PDX model, tumor fragments were harvested from stock animals and implanted unilaterally on the left flank of 6- to 8-week-old mice and then the mice were randomized into 10 mice per treatment group. After tumor cell inoculation, the animals were checked daily for morbidity and mortality. All experiments were performed once.
Purified water (type II or high-performance liquid chromatography grade) was used as aqueous suspension vehicle and control for in vivo efficacy experiments. […] Tovorafenib was freshly prepared every day prior to dosing.
Randomization was performed based on the “Matched distribution” method (StudyDirector software, version 3.1.399.19) with the date of randomization denoted as day 0. Tumor volumes and body weight were measured twice per week after randomization. Tumor volume was measured in two dimensions (2D) using a caliper, and the volume was expressed in mm^3 using the formula V = (L × W × W)/2, in which V was tumor volume, L was tumor length (the longest tumor dimension), and W was tumor width (the longest tumor dimension perpendicular to L). Percentage change in tumor volume and body weight was calculated using StudyDirector software (version 3.1.399.19).
as §1

C[C@@H](NC(=O)c1ncnc(N)c1Cl)c1ncc(C(=O)Nc2cc(C(F)(F)F)c(Cl)cn2)s1 [Tovorafenib]
pERK modulation pattern over concentration [1]: increased pERK levels at lower concentrations of tovorafenib and pERK decreasing at higher inhibitor concentrations | pERK in tumor compared with vehicle control ([2]; single oral dose 17.5 mg/kg, 8 and 24 hours after dose): Inhibition of pERK was observed | pERK in tumor compared with vehicle control ([2]; single oral dose 25 mg/kg, 4, 8, and 24 hours after dose): Inhibition of pERK was observed | Cmin (PK parameters in mouse): 596 to 1265 ng/mL | AUC(0-t) (PK parameters in mouse; plasma, oral, read-out: Daily AUC0-24): 50100 to 96600 ng·h/mL | tolerability (NF1-LOF MeWo xenograft): well tolerated | antitumor activity (NF1-LOF MeWo xenograft; BALB/c nude mice): Lack of significant antitumor activity | day on which tumors started to regrow ([3]; 17.5 mg/kg daily, approximately 2 weeks after the last dosage): 28 days | effect on tumor growth ([3]; 17.5 mg/kg orally daily for 14 days): tumor regression was observed | effect on tumor growth ([3]; 25 mg/kg orally daily for 14 days): tumor regression was observed | tolerability ([3]; 25 and 17.5 mg/kg orally daily, both dose levels): well tolerated | body weight loss ([3]; 25 and 17.5 mg/kg orally daily, throughout the treatment): no significant body weight loss | time tumor regression was sustained after the last dose ([3]; both efficacy studies (25 and 17.5 mg/kg), last dose on day 14): at least 7 days
